# Test results as given in US5383848A, “Iontophoretic administration of drugs” (Gensia, Inc., priority 1991, dated 1995).
# Entries after “also recorded” stand apart in the source; their conditions may differ.
# System: elevated heart rate
# Experiment: In vivo dog experiments: heart rate offset after iontophoretic ESA drug with pretreatment (Example A)
# Parameters: species or system labrador dogs
# Details: for Offset Slope Component (0-5) min: 0-5 min after heart rate begins to decline; for Offset Slope Component (5-10) min: 5-10 min after decline begins; for Offset Slope Component (10-30) min: 10-30 min after decline begins; for Change in Heart Rate (peak minus baseline) / Peak Heart Rate: Table II; for Total time (startup) thru offset plateau: w/in 20 bpm of baseline / Total time (startup) thru offset plateau: in words / t 1/2 of elevated heart rate decay / Total time (startup) thru offset plateau: w/in 10 bpm of baseline: Table IV; for Onset Slope: baseline at onset time to peak heart rate; for Offset time: drug delivery stopped until within 20 bpm of baseline; for Offset Slope: drug shut-off to 20 bpm above baseline; for Delay: drug shut-off to start of heart rate decline; for t 1/2 of elevated heart rate decay: exponential fit; for Reduction in offset time: iontophoretic pre-delivery; for Onset time: start of delivery to start of increase in heart rate; for Time Start Decline: time when elevated heart rate began to decline
smiles,measurement,setting,value
"COC(=O)c1cccnc1 [Methyl Nicotinate, methyl ester of nicotinic acid]",Offset Slope Component (0-5) min,listed as 9,-2.40 beats per minute per minute
same,Offset Slope Component (0-5) min,listed as 10,-1.40 beats per minute per minute
same,Offset Slope Component (5-10) min,listed as 9,-0.40 beats per minute per minute
same,Offset Slope Component (5-10) min,listed as 10,-2.40 beats per minute per minute
same,Offset Slope Component (10-30) min,listed as 9,-0.28 beats per minute per minute
same,Offset Slope Component (10-30) min,listed as 10,-1.90 beats per minute per minute
same,Change in Heart Rate (peak minus baseline),listed as 9,55 bpm
same,Peak Heart Rate,listed as 9,117 bpm
same,Change in Heart Rate (peak minus baseline),listed as 10,81 bpm
same,Peak Heart Rate,listed as 10,152 bpm
same,Total time (startup) thru offset plateau: w/in 20 bpm of baseline,,55 min
same,Total time (startup) thru offset plateau: in words,listed as 9,Never Reached w/in 20 bpm of baseline
same,Total time (startup) thru offset plateau: in words,listed as 10,never lower
same,Onset Slope,listed as 9,4.20 beats per minute per minute
same,Onset Slope,listed as 10,12.30 beats per minute per minute
same,Offset time,listed as 9,29.00 min
same,Offset time,listed as 10,31.00 min
same,Offset Slope,listed as 9,-0.40 beats per minute per minute
same,Offset Slope,listed as 10,-1.70 beats per minute per minute
same,Delay,listed as 9,6.50 min
same,Delay,listed as 10,2.50 min
same,t 1/2 of elevated heart rate decay,,21.36 min
same,Reduction in offset time,,also reduce offset time
same,Onset time,listed as 9,15.00 min
same,Onset time,listed as 10,7.00 min
same,Time Start Decline,listed as 9,25.00 min
same,Time Start Decline,listed as 10,20.50 min
CC(COc1ccccc1)N(CCCl)Cc1ccccc1 (stereo not drawn) [Phenoxybenzamine],Offset Slope Component (0-5) min,listed as 18,-4.20 beats per minute per minute
same,Offset Slope Component (0-5) min,listed as 19,-4.90 beats per minute per minute
same,Offset Slope Component (5-10) min,listed as 18,0.02 beats per minute per minute
same,Offset Slope Component (5-10) min,listed as 19,-2.00 beats per minute per minute
same,Offset Slope Component (10-30) min,listed as 18,-0.53 beats per minute per minute
same,Offset Slope Component (10-30) min,listed as 19,-1.80 beats per minute per minute
same,Change in Heart Rate (peak minus baseline),listed as 18,57 bpm
same,Peak Heart Rate,listed as 18,117 bpm
same,Change in Heart Rate (peak minus baseline),listed as 19,79 bpm
same,Peak Heart Rate,listed as 19,149 bpm
same,Total time (startup) thru offset plateau: w/in 10 bpm of baseline,listed as 18,60 min
same,Total time (startup) thru offset plateau: w/in 10 bpm of baseline,listed as 19,48 min
same,Onset Slope,listed as 18,3.70 beats per minute per minute
same,Onset Slope,listed as 19,13.90 beats per minute per minute
same,Offset time,listed as 18,30.00 min
same,Offset time,listed as 19,25.80 min
same,Offset Slope,listed as 18,-0.80 beats per minute per minute
same,Offset Slope,listed as 19,-2.30 beats per minute per minute
same,Delay,listed as 18,10.00 min
same,Delay,listed as 19,3.50 min
same,t 1/2 of elevated heart rate decay,listed as 18,16.96 min
same,t 1/2 of elevated heart rate decay,listed as 19,11.52 min
same,Reduction in offset time,,found effective when pre-delivered iontophoretically; also recorded: also reduce offset time
same,Onset time,listed as 18,18.00 min
same,Onset time,listed as 19,7.40 min
same,Time Start Decline,listed as 18,28.00 min
same,Time Start Decline,listed as 19,22.00 min
Cc1ccc(N(CC2=NCCN2)c2cccc(O)c2)cc1 [Phentolamine],Reduction in offset time,,found effective when pre-delivered iontophoretically
CC[C@@H]1C(=O)OC[C@@H]1Cc1cncn1C [Pilocarpine],Offset Slope Component (0-5) min,listed as 7,-1.70 beats per minute per minute
same,Offset Slope Component (0-5) min,listed as 8,-7.60 beats per minute per minute
same,Offset Slope Component (5-10) min,listed as 7,-2.50 beats per minute per minute
same,Offset Slope Component (5-10) min,listed as 8,-1.40 beats per minute per minute
same,"Percent decline in heart rate, ranking","5-10 minute interval, FIG. 1",next highest percent declines
same,Offset Slope Component (10-30) min,listed as 7,-1.10 beats per minute per minute
same,Offset Slope Component (10-30) min,listed as 8,-1.00 beats per minute per minute
same,"Delay to onset of heart rate decline, ranking",FIG. 2,shortest delay
same,Change in Heart Rate (peak minus baseline),listed as 7,73 bpm
same,Peak Heart Rate,listed as 7,133 bpm
same,Change in Heart Rate (peak minus baseline),listed as 8,114 bpm
same,Peak Heart Rate,listed as 8,191 bpm
same,Total time (startup) thru offset plateau: in words,,Never reached w/in 20 bpm of baseline
same,Total time (startup) thru offset plateau: w/in 20 bpm of baseline,,60 min
same,Onset Slope,listed as 7,11.60 beats per minute per minute
same,Onset Slope,listed as 8,11.20 beats per minute per minute
same,Offset time,listed as 7,38.00 min
same,Offset time,listed as 8,36.00 min
same,Offset Slope,listed as 7,-1.10 beats per minute per minute
same,Offset Slope,listed as 8,-1.70 beats per minute per minute
same,Delay,listed as 7,1.30 min
same,Delay,listed as 8,5.30 min
same,t 1/2 of elevated heart rate decay,listed as 7,28.85 min
same,t 1/2 of elevated heart rate decay,listed as 8,21.36 min
same,Reduction in offset time,,also reduce offset time
same,Onset time,listed as 7,6.70 min
same,Onset time,listed as 8,13.00 min
same,Time Start Decline,listed as 7,23.80 min
same,Time Start Decline,listed as 8,24.30 min
